Experimental data published in patent publication US7592364B2, “Substituted gamma lactams as therapeutic agents” (Allergan, Inc., priority 2006, dated 2009).

Tests used:
[1] = target: T1, EP4 receptors (Homo sapiens, UniProt P35408); test: EP4 radioligand binding (Ki) vs [3H]PGE2; details: unit inferred
T1 construct: expressed in transfected cells; host or cells: HEK-293
Procedure: (§1) Cells Stably Expressing EP1, EP2, EP4 and FP Receptors
(§2) HEK-293 cells stably expressing the human or feline FP receptor, or EP1, EP2, or EP4 receptors were washed with TME buffer, scraped from the bottom of the flasks, and homogenized for 30 sec using a Brinkman PT 10/35 polytron. TME buffer was added to achieve a final 40 ml volume in the centrifuge tubes (the composition of TME is 100 mM TRIS base, 20 mM MgCl2, […]; 10N HCl is added to achieve a pH of 7.4).
(§3) The cell homogenate was centrifuged at 19000 r.p.m. for 20 min at 4° C. using a Beckman Ti-60 rotor. The resultant pellet was resuspended in TME buffer to give a final 1 mg/ml protein concentration, as determined by Biorad assay. Radioligand binding competition assays vs. [^3H-]17-phenyl PGF2α (5 nM) were performed in a […] volume for 60 min. Binding reactions were started by adding plasma membrane fraction. The reaction was terminated by the addition of 4 ml ice-cold TRIS-HCl buffer and rapid filtration through glass fiber GF/B filters using a Brandel cell harvester. The filters were washed 3 times with ice-cold buffer and oven dried for one hour.
(§4) [^3H-] PGE2 (specific activity 180 Ci mmol) was used as the radioligand for EP receptors. [^3H] 17-phenyl PGF2, was employed for FP receptor binding studies. Binding studies employing EP1, EP2, EP4 and FP receptors were performed in duplicate in at least three separate experiments. A 200 μl assay volume was used. Incubations were for 60 min at 25° C. and were terminated by the addition of 4 ml of ice-cold 50 mM TRIS-HCl, followed by rapid filtration through Whatman GF/B filters and three additional 4 ml washes in a cell harvester (Brandel). Competition studies were performed using a final concentration of 5 nM [^3H]-PGE2, or 5 nM [^3H] 17-phenyl PGF2, and non-specific binding determined with 10^−5M of unlabeled PGE2, or 17-phenyl PGF2α, according to receptor subtype studied.

[2] = target: T2, hEP2/Gqs5 (Homo sapiens, UniProt P43116); test: EP2 FLIPR calcium signal study; assay type: cell-based; details: HEK-293(EBNA) cells expressing hEP2/Gqs5; unit inferred
T2 construct: expressed in transfected cells; host or cells: HEK-293(EBNA)
T2 sequence (P43116 whole entry): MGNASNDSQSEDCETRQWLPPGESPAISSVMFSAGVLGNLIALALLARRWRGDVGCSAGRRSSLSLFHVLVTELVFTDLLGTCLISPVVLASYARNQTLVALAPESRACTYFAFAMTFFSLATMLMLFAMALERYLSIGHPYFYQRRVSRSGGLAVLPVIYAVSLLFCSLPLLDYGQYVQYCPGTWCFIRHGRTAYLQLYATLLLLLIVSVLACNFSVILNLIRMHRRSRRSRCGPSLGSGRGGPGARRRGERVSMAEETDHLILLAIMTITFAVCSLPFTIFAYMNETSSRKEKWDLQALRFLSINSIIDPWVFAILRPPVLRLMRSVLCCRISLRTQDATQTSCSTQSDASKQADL
Procedure: (§5) Methods for FLIPR™ Studies
(§6) HEK-293(EBNA) cells, stably expressing one type or subtype of recombinant human prostaglandin receptors (prostaglandin receptors expressed: hDP/Gqs5; hEP1; hEP2/Gqs5; hEP3A/Gqi5; hEP4/Gqs5; hFP; hIP; hTP), were cultured in 100 mm culture dishes in high-glucose DMEM medium containing 10% fetal bovine serum, 2 mM 1-glutamine, 250 μg/ml geneticin (G418) and 200 μg/ml hygromycin B as selection markers, and 100 units/ml penicillin G, 100 μg/ml streptomycin and 0.25 μg/ml amphotericin B.
(§7) (b) Calcium Signal Studies on The FLIPR™
(§8) Cells were seeded at a density of 5×10^4 cells per well in Biocoat® Poly-D-lysine-coated black-wall, clear-bottom 96-well plates (Becton-Dickinson) and allowed to attach overnight in an incubator at 37° C. Cells were then washed two times with HBSS-HEPES buffer (Hanks Balanced Salt Solution without bicarbonate and phenol red, 20 mM HEPES, pH 7.4) using a Denley Cellwash plate washer (Labsystems). After 45 minutes of dye-loading in the dark, using the calcium-sensitive dye Fluo-4 […] at a final concentration of 2 μM, plates were washed four times with HBSS-HEPES buffer to remove excess dye leaving 100 μl in each well. Plates were re-equilibrated to 37° C. for a few minutes.
(§9) Cells were excited with an Argon laser at 488 nm, and emission was measured through a 510-570 nm bandwidth emission filter (FLIPR™, Molecular Devices, Sunnyvale, Calif.). Drug solution was added in a 50 μl volume to each well to give the desired final concentration. The peak increase in fluorescence intensity was recorded for each well. On each plate, four wells each served as negative (HBSS-HEPES buffer) and positive controls (standard agonists: BW245C (hDP); PGE2 (hEP1; hEP2/Gqs5; hEP3A/Gqi5; hEP4/Gqs5); PGF2α (hFP); carbacyclin (hIP); U-46619 (hTP), depending on receptor). The peak fluorescence change in each drug-containing well was then expressed relative to the controls.
(§10) Compounds were tested in a high-throughput (HTS) or concentration-response (CoRe) format. In the HTS format, forty-four compounds per plate were examined in duplicates at a concentration of 10^−5 M. To generate concentration-response curves, four compounds per plate were tested in duplicates in a concentration range between 10^−5 and 10^−11 M. The duplicate values were averaged. In either, HTS or CoRe format each compound was tested on at least 3 separate plates using cells from different passages to give an n>3.

[3] = target: T3, EP2 (Homo sapiens, UniProt P43116); test: EP2 cAMP assay; assay type: cell-based; details: unit inferred
T3 sequence (P43116 whole entry): as above

[4] = target: T3, EP2; test: EP2 competition binding (Ki) vs [3H]PGE2; design: expressed in transfected cells; host or cells: HEK 293; details: HEK 293 cells stably expressing human EP2, [3H]PGE2; unit inferred
Procedure: Competition binding experiments were performed in a medium containing Hank's balanced salt solution, Hepes 20 mM, pH 7.3, membranes (˜60 μg protein) or 2×10^5 cells from HEK 293 cells stably expressing human EP2 receptors, [^3H]PGE2 (10 nM) and various concentrations of test compounds in a total volume of 300 μl. Reaction mixtures were incubated at 23° C. for 60 min, and were filtered over Whatman GF/B filters under vacuum. Filters were washed three times with 5 ml ice-cold buffer containing 50 mM Tris/HCl (pH 7.3). Non-specific binding was estimated in the presence of excess unlabeled PGE2 (10 μM). Binding data fitted to the binding model for a single class of binding sites, using nonlinear regression analysis. IC50 values thus obtained were converted to Ki using the equation of Ki=(IC50/(1+[L]/KD) where [L] represents PGE2 concentration (10 nM) and KD the dissociation constant for [^3H]PGE2 at human EP2 receptors (40 nM).
as §1, §2, §3, §4

[5] = target: T4, hDP/Gqs5 (Homo sapiens, UniProt Q13258); test: hDP FLIPR calcium signal study; assay type: cell-based; details: HEK-293(EBNA) cells expressing hDP/Gqs5; read-out: Other Receptors (EC50 in nM) hDP
T4 construct: expressed in transfected cells; host or cells: HEK-293(EBNA)
T4 sequence (Q13258 1-359): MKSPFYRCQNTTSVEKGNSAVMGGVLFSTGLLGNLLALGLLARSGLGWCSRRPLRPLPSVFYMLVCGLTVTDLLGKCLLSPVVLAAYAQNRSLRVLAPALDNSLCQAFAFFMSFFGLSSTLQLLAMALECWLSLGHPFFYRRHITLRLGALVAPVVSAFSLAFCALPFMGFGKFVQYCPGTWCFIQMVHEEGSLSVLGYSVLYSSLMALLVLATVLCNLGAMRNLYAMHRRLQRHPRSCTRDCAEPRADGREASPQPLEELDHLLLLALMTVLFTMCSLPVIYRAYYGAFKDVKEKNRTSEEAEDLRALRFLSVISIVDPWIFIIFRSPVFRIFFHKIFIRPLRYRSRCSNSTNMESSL
Procedure: as §5, §6, §7, §8, §9, §10

[6] = target: T5, hEP4/Gqs5 (Homo sapiens, UniProt P35408); test: EP4 FLIPR calcium signal study; assay type: cell-based; details: HEK-293(EBNA) cells expressing hEP4/Gqs5; unit inferred
T5 construct: expressed in transfected cells; host or cells: HEK-293(EBNA)
T5 sequence (P35408 whole entry): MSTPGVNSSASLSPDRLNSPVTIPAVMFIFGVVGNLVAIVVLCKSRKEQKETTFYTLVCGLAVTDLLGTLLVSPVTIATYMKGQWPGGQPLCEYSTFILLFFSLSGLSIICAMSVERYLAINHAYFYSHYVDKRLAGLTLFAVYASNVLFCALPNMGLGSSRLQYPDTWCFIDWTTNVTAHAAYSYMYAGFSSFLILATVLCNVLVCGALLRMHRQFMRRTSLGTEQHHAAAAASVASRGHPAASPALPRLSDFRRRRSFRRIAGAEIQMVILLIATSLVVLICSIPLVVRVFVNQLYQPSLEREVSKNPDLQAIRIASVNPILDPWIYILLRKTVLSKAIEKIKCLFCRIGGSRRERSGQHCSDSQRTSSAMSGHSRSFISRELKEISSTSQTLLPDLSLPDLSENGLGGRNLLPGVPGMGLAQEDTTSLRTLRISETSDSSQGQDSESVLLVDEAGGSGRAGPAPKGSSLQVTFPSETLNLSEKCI
Procedure: as §5, §6, §7
(§11) Cells were seeded at a density of 5×10^4 cells per well in Biocoat® Poly-D-lysine-coated black-wall, clear-bottom 96-well plates (Becton-Dickinson) and allowed to attach overnight in an incubator at 37° C. Cells were then washed two times with HBSS-HEPES buffer (Hanks Balanced Salt Solution without bicarbonate and phenol red, 20 mM HEPES, pH 7.4) using a Denley Cellwash plate washer (Labsystems). […]
(§12) Cells were excited with an Argon laser at 488 nm, and emission was measured through a 510-570 nm bandwidth emission filter (FLIPR™, Molecular Devices, Sunnyvale, Calif.). […] The peak increase in fluorescence intensity was recorded for each well. […] The peak fluorescence change in each drug-containing well was then expressed relative to the controls. […]

[7] = target: T6, hEP3A/Gqi5 (Homo sapiens, UniProt P43115); test: hEP3A FLIPR calcium signal study; assay type: cell-based; details: HEK-293(EBNA) cells expressing hEP3A/Gqi5; read-out: Other Receptors (EC50 in nM) hEP3A
T6 construct: expressed in transfected cells; host or cells: HEK-293(EBNA)
T6 sequence (P43115 1-390): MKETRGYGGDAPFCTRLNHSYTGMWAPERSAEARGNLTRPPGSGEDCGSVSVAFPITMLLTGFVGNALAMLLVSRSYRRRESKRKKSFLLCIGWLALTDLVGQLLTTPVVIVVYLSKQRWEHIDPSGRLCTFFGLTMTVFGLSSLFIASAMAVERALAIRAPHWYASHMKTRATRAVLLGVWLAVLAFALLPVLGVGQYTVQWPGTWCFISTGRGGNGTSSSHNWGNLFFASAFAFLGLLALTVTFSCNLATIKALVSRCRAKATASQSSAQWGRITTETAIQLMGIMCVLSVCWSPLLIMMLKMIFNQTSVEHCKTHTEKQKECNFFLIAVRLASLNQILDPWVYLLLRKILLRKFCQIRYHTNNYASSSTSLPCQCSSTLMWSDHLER
Procedure: as §5, §6, §7, §11, §12

T1 sequence (P35408 whole entry): as the sequence (P35408 whole entry) above

Row | Compound | Ki [1] [nM] | EC50 [2] [nM] | EC50 [3] [nM] | Ki [4] [nM] | EC50 [5] [nM] | EC50 [6] [nM] | EC50 [7] [nM]
1 | CCCCCC(O)c1ccc(N2C(=O)CC[C@@H]2COCc2cccc(C(=O)O)c2)cc1 (mixture of isomers) [Example 11, 3-{(R)-1-[4-(1-Hydroxy-hexyl)-phenyl]-5-oxo-pyrrolidin-2-ylmethoxymethyl}-benzoic acid] | > 10000 | > 10000 | 517 | – | – | – | –
2 | CCCCC(O)c1ccc(N2C(=O)CC[C@@H]2COCc2ccc(C(=O)O)s2)cc1 (mixture of isomers) [Example 12, 5-{(R)-1-[4-(1-Hydroxy-pentyl)-phenyl]-5-oxo-pyrrolidin-2-ylmethoxymethyl}-thiophene-2-carboxylic acid] | > 10000 | 212 | 8 | 387 | – | – | –
3 | CCCC(O)c1ccc(N2C(=O)CC[C@@H]2COCc2ccc(C(=O)O)s2)cc1 (mixture of isomers) [Example 14, 5-{(R)-1-[4-(1-Hydroxy-butyl)-phenyl]-5-oxo-pyrrolidin-2-ylmethoxymethyl}-thiophene-2-carboxylic acid] | > 10000 | 426 | 27 | 1640 | – | – | –
4 | CCC(O)c1ccc(N2C(=O)CC[C@@H]2COCc2ccc(C(=O)O)s2)cc1 (mixture of isomers) [Example 15, 5-{(R)-1-[4-(1-Hydroxy-propyl)-phenyl]-5-oxo-pyrrolidin-2-ylmethoxymethyl}-thiophene-2-carboxylic acid] | > 10000 | 1810 | 312 | 5730 | 7560 | > 10000 | –
5 | CCCCCC(O)c1ccc(N2C(=O)CC[C@@H]2COc2ccc(C(=O)O)cc2)cc1 (mixture of isomers) [Example 43, 4-{(R)-1-[4-(1-Hydroxy-hexyl)-phenyl]-5-oxo-pyrrolidin-2-ylmethoxy}-benzoic acid] | 8750 | 7280 | – | 22700 | – | – | –
6 | CCCCC[C@@H](O)c1ccc(N2C(=O)CC[C@@H]2/C=C/Cc2ccc(C(=O)O)s2)cc1 (racemic) [Example 16, 5-((E and Z)-3-{(R)-1-[4-(1-Hydroxy-hexyl)-phenyl]-5-oxo-pyrrolidin-2-yl}-allyl)-thiophene-2-carboxylic acid] | > 10000 | 226 | 15 | 1380 | – | – | –

Compounds with a lower EC50 [2], results first:

Row | Ki [1] [nM] | EC50 [2] [nM] | EC50 [3] [nM] | Ki [4] [nM] | EC50 [5] [nM] | EC50 [6] [nM] | EC50 [7] [nM] | Compound
7 | – | 30 | – | – | 105 | > 10000 | 47 | CCCCCCC(O)c1ccc(N2C(=O)CC[C@@H]2CCCc2ccc(C(=O)O)s2)cc1 (mixture of isomers) [Example 36, 5-(3-{(S)-1-[4-(1-Hydroxy-heptyl)-phenyl]-5-oxo-pyrrolidin-2-yl}-propyl)-thiophene-2-carboxylic acid]
8 | > 10000 | 20 | 1.5 | 190 | 5760 | – | – | CCCCCCC(O)c1ccc(N2C(=O)CC[C@@H]2COCc2ccc(C(=O)O)s2)cc1 (mixture of isomers) [Example 13, 5-{(R)-1-[4-(1-Hydroxy-heptyl)-phenyl]-5-oxo-pyrrolidin-2-ylmethoxymethyl}-thiophene-2-carboxylic acid]
9 | > 10000 | 5 | 0.55 | 23 | 1230 | – | 155 | CCCCCC(O)c1ccc(N2C(=O)CC[C@@H]2CCCc2ccc(C(=O)O)s2)cc1 (mixture of isomers) [Example 17, 5-(3-{(S)-1-[4-(1-Hydroxy-hexyl)-phenyl]-5-oxo-pyrrolidin-2-yl}-propyl)-thiophene-2-carboxylic acid]
